The assay deals with HBV. In words: HBV inhibition assay in HepAD38 cells (extracellular HBV DNA by direct qPCR). Type of assay: cell-based, Hepatitis B virus. The following applies: Hepatitis B virus, 96 hours, 8-point dose-response curve, read-out: HBV inh EC50.
Consider `Cc1nc(C(=O)N2C[C@H]3COc4c(cn(C)c4C(=O)Nc4ccc(F)c(C)c4)S(=O)(=O)N[C@H]3C2)co1` [Example E112, (3aR,10aR)—N-(4-fluoro-3-methylphenyl)-7-methyl-2-(2-methyloxazole-4-carbonyl)-2,3,3a,4,10,10a-hexahydro-1H,7H-dipyrrolo[3,4-b:3′,4′-f][1,4,5]oxathiazocine-8-carboxamide 5,5-dioxide], for which the EC50 was less than 1 µM.

As to `Cc1cc(NC(=O)c2c3c(cn2C)S(=O)(=O)N[C@H]2CN(C(=O)c4ncoc4C)C[C@H]2CO3)ccc1F` [Example E113, (3aR,10aR)—N-(4-fluoro-3-methylphenyl)-7-methyl-2-(5-methyloxazole-4-carbonyl)-2,3,3a,4,10,10a-hexahydro-1H,7H-dipyrrolo[3,4-b:3′,4′-f][1,4,5]oxathiazocine-8-carboxamide 5,5-dioxide], the concentration giving a half-maximal response (EC50) is less than 1 µM.

Turning to `Cc1nc(C(=O)N2C[C@H]3COc4c(cn(C)c4C(=O)Nc4ccc(F)c(C)c4)S(=O)(=O)N[C@H]3C2)c(C)o1` [Example E114, (3aR,10aR)-2-(2,5-dimethyloxazole-4-carbonyl)-N-(4-fluoro-3-methylphenyl)-7-methyl-2,3,3a,4,10,10a-hexahydro-1H,7H-dipyrrolo[3,4-b:3′,4′-f][1,4,5]oxathiazocine-8-carboxamide 5,5-dioxide], the EC50 is less than 1 µM.

Consider `Cc1noc(N2C[C@H]3COc4c(cn(C)c4C(=O)Nc4ccc(F)c(C)c4)S(=O)(=O)N[C@H]3C2)n1` [Example E115, (3aR,10aR)—N-(4-fluoro-3-methylphenyl)-7-methyl-2-(3-methyl-1,2,4-oxadiazol-5-yl)-2,3,3a,4,10,10a-hexahydro-1H,7H-dipyrrolo[3,4-b:3′,4′-f][1,4,5]oxathiazocine-8-carboxamide 5,5-dioxide], for which the EC50 was less than 1 µM.

Regarding `Cc1noc(N2C[C@H]3COc4c(cn(C)c4C(=O)Nc4ccc(F)c(Cl)c4)S(=O)(=O)N[C@H]3C2)n1` [Example E116, (3aR,10aR)—N-(3-chloro-4-fluorophenyl)-7-methyl-2-(3-methyl-1,2,4-oxadiazol-5-yl)-2,3,3a,4,10,10a-hexahydro-1H,7H-dipyrrolo[3,4-b:3′,4′-f][1,4,5]oxathiazocine-8-carboxamide 5,5-dioxide], the EC50 was less than 1 µM.

Regarding `Cc1noc(N2C[C@H]3COc4c(cn(C)c4C(=O)Nc4cc(F)c(F)c(F)c4)S(=O)(=O)N[C@H]3C2)n1` [Example E117, (3aR,10aR)-7-methyl-2-(3-methyl-1,2,4-oxadiazol-5-yl)-N-(3,4,5-trifluorophenyl)-2,3,3a,4,10,10a-hexahydro-1H,7H-dipyrrolo[3,4-b:3′,4′-f][1,4,5]oxathiazocine-8-carboxamide 5,5-dioxide], the EC50 was less than 1 µM.

Take `Cc1nnc(N2C[C@H]3COc4c(cn(C)c4C(=O)Nc4ccc(F)c(C)c4)S(=O)(=O)N[C@H]3C2)o1` [Example E118, (3aR,10aR)—N-(4-fluoro-3-methylphenyl)-7-methyl-2-(5-methyl-1,3,4-oxadiazol-2-yl)-2,3,3a,4,10,10a-hexahydro-1H,7H-dipyrrolo[3,4-b:3′,4′-f][1,4,5]oxathiazocine-8-carboxamide 5,5-dioxide]: the EC50 is less than 1 µM.

Regarding `Cc1nnc(N2C[C@H]3COc4c(cn(C)c4C(=O)Nc4ccc(F)c(Cl)c4)S(=O)(=O)N[C@H]3C2)o1` [Example E119, (3aR,10aR)—N-(3-chloro-4-fluorophenyl)-7-methyl-2-(5-methyl-1,3,4-oxadiazol-2-yl)-2,3,3a,4,10,10a-hexahydro-1H,7H-dipyrrolo[3,4-b:3′,4′-f][1,4,5]oxathiazocine-8-carboxamide 5,5-dioxide], the EC50 was less than 1 µM.

As to `Cc1nnc(N2C[C@H]3COc4c(cn(C)c4C(=O)Nc4cc(F)c(F)c(F)c4)S(=O)(=O)N[C@H]3C2)o1` [Example E120, (3aR,10aR)-7-methyl-2-(5-methyl-1,3,4-oxadiazol-2-yl)-N-(3,4,5-trifluorophenyl)-2,3,3a,4,10,10a-hexahydro-1H,7H-dipyrrolo[3,4-b:3′,4′-f][1,4,5]oxathiazocine-8-carboxamide 5,5-dioxide], the EC50 was less than 1 µM.

Take `CCOC(=O)N1C[C@H]2CSc3c(cn(C)c3C(=O)Nc3ccc(F)c(C)c3)S(=O)(=O)N[C@H]2C1` [Example E121, Ethyl (3aR,10aR)-8-((4-fluoro-3-methylphenyl)carbamoyl)-7-methyl-3a,4,10,10a-tetrahydro-1H,7H-dipyrrolo[3,4-c:3′,4′-g][1,6,2]dithiazocine-2(3H)-carboxylate 5,5-dioxide]: the EC50 is less than 1 µM.

Consider `CCOC(=O)N1C[C@H]2C[S+]([O-])c3c(cn(C)c3C(=O)Nc3ccc(F)c(C)c3)S(=O)(=O)N[C@H]2C1` (stereo partly drawn) [Example E122, Ethyl (3aR,10aR)-8-((4-fluoro-3-methylphenyl)carbamoyl)-7-methyl-3a,4,10,10a-tetrahydro-1H,7H-dipyrrolo[3,4-c:3′,4′-g][1,6,2]dithiazocine-2(3H)-carboxylate 5,5,9-trioxide], for which the EC50 was less than 1 µM.

Consider `CCOC(=O)N1C[C@H]2CS(=O)(=O)c3c(cn(C)c3C(=O)Nc3ccc(F)c(C)c3)S(=O)(=O)N[C@H]2C1` [Example E123, Ethyl (3aR,10aR)-8-((4-fluoro-3-methylphenyl)carbamoyl)-7-methyl-3a,4,10,10a-tetrahydro-1H,7H-dipyrrolo[3,4-c:3′,4′-g][1,6,2]dithiazocine-2(3H)-carboxylate 5,5,9,9-tetraoxide], for which the EC50 is less than 1 µM.

On to `Cc1nnc(C(=O)N2C[C@H]3CSc4c(cn(C)c4C(=O)Nc4ccc(F)c(C)c4)S(=O)(=O)N[C@H]3C2)o1` [Example E124, (3aR,10aR)—N-(4-fluoro-3-methylphenyl)-7-methyl-2-(5-methyl-1,3,4-oxadiazole-2-carbonyl)-2,3,3a,4,10,10a-hexahydro-1H,7H-dipyrrolo[3,4-c:3′,4′-g][1,6,2]dithiazocine-8-carboxamide 5,5-dioxide], for which the EC50 is less than 1 µM.

Consider `Cc1cc(NC(=O)c2c3c(cn2C)S(=O)(=O)NC2CN(C(=O)OC(C)(C)C)CC2CO3)ccc1F` (stereo not drawn) [Example E145, Trans-Tert-Butyl 8-((4-fluoro-3-methylphenyl)carbamoyl)-7-methyl-3a,4,10,10a-tetrahydro-1H,7H-dipyrrolo[3,4-b:3′,4′-f][1,4,5]oxathiazocine-2(3H)-carboxylate 5,5-dioxide], for which the EC50 is less than 1 µM.

For the compound `Cc1cc(NC(=O)c2c3c(cn2C)S(=O)(=O)NC2CN(C(=O)c4ncoc4C)CC2CO3)ccc1F` (stereo not drawn) [Example E147, Trans-N-(4-fluoro-3-methylphenyl)-7-methyl-2-(5-methyloxazole-4-carbonyl)-2,3,3a,4,10,10a-hexahydro-1H,7H-dipyrrolo[3,4-b:3′,4′-f][1,4,5]oxathiazocine-8-carboxamide 5,5-dioxide], the EC50 was less than 1 µM.

For `Cc1cc(NC(=O)c2c3c(cn2C)S(=O)(=O)NC2CN(C(=O)C4(C)CCCO4)CC2CO3)ccc1F` (stereo not drawn) [Example E148, Trans-N-(4-fluoro-3-methylphenyl)-7-methyl-2-(2-methyltetrahydrofuran-2-carbonyl)-2,3,3a,4,10,10a-hexahydro-1H,7H-dipyrrolo[3,4-b:3′,4′-f][1,4,5]oxathiazocine-8-carboxamide 5,5-dioxide], the EC50 was less than 1 µM.

The values above are taken from patent publication US11504382B2, “Tricyclic inhibitors of Hepatitis B virus” (Antios Therapeutics, Inc., priority 2018, dated 2022).
